Measured values reported in the supplement of paper PMC11061612.

Experiments:
Test in all cases: Bliss excess, mean over the matrix (fraction); higher = more synergy
[1] = test system: CAL-62 (Thyroid Gland Carcinoma)
Procedure, shortened: (§1)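 Bliss excess equals the observed combination effect minus the expected value EA + EB − EA·EB, where EA and EB are the effects of each agent alone. Combination Emax is the second-highest inhibition within the matrix. Inhibition was scaled from CellTiter-Glo 2.0 luminescence, with 0 set by vehicle wells and 1 by blank wells, after 72 hours of two-drug dosing of cells plated in 1536-well plates.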

IST-MES1 (Mesothelioma) = test system: IST-MES1 (Mesothelioma)
Procedure, shortened: as §1

[2] = test system: MKN45 (Gastric Carcinoma)
Procedure, shortened: as §1

NB12 (Neuroblastoma) = test system: NB12 (Neuroblastoma)
Procedure, shortened: as §1

[3] = test system: SHP-77 (Small Cell Lung Carcinoma)
Procedure, shortened: as §1

SK-MEL-2 (Melanoma) = test system: SK-MEL-2 (Melanoma)
Procedure, shortened: as §1

[4] = test system: TE-8 (Esophageal Squamous Cell Carcinoma)
Procedure, shortened: as §1

[5] = test system: VAL (B-Cell Non-Hodgkin's Lymphoma)
Procedure, shortened: as §1

| SMILES | Bliss excess [1] | Bliss excess (IST-MES1 (Mesothelioma)) | Bliss excess [2] | Bliss excess (NB12 (Neuroblastoma)) | Bliss excess [3] | Bliss excess (SK-MEL-2 (Melanoma)) | Bliss excess [4] | Bliss excess [5] |
| --- | --- | --- | --- | --- | --- | --- | --- | --- |
| CN(CCO)CC[C@H](CSc1ccccc1)Nc1ccc(S(=O)(=O)NC(=O)c2ccc(N3CCC([C@@H](O)c4ccccc4-c4ccc(Cl)cc4)CC3)cc2)cc1S(=O)(=O)C(F)(F)F [AZD4320] + CC(=O)O[C@H]1C(=O)[C@@]2(C)[C@H]([C@H](OC(=O)c3ccccc3)[C@]3(O)C[C@H](OC(=O)[C@H](O)[C@@H](NC(=O)c4ccccc4)c4ccccc4)C(C)=C1C3(C)C)[C@]1(OC(C)=O)CO[C@@H]1C[C@@H]2O [Paclitaxel] (first compound max 1 µM, 7x7, partner max 3 µM) | 0.0036 | 0.0787 | -0.121 | 0.0333 | -0.0369 | 0.148 | 0.0954 | 0.0018 |
| Cc1cc2ncnn2cc1Nc1ncc2c(n1)n(C1CCOCC1)c(=O)n2C [AZD7648] + COc1cc([C@@H]2c3cc4c(cc3[C@@H](O[C@@H]3O[C@@H]5CO[C@@H](C)O[C@H]5[C@H](O)[C@H]3O)[C@H]3COC(=O)[C@H]23)OCO4)cc(OC)c1O [Etoposide] (first compound max 10 µM, 7x7, partner max 10 µM) | 0.127 | 0.116 | -0.0126 | 0.121 | 0.0139 | -0.0163 | 0.0501 | -0.0395 |
| CN(CCO)CC[C@H](CSc1ccccc1)Nc1ccc(S(=O)(=O)NC(=O)c2ccc(N3CCC([C@@H](O)c4ccccc4-c4ccc(Cl)cc4)CC3)cc2)cc1S(=O)(=O)C(F)(F)F [AZD4320] + Nc1ccn([C@@H]2O[C@H](CO)[C@@H](O)C2(F)F)c(=O)n1 [Gemcitabine] (first compound max 1 µM, 7x7, partner max 0.3 µM) | 0.0487 | 0.0448 | -0.0393 | 0.0268 | 0.0333 | -0.0453 | 0.0054 | -0.0044 |
